Data taken from US20110039793A1, “Application of ginsenoside Rb1 in preparing medicaments for treating dilated cardiomyopathy” (priority 2008, published 2011).

Test system: cTnT^R141W transgenic dilated cardiomyopathy mice model
Experiment: M-mode echocardiography, cardiac function and morphous, once a month
Type: in vivo
Set-up: CO (Cardiac Output) / LVAW; d (left ventricular anterior wall thickness, end of diastole) / LV Mass (AW) (weight of the left ventricular) / Diameter; d (inner diameter of the left ventricular, end of diastole) / Volume; d (volume of the left ventricular, end of diastole) / SV (Stroke Volume): unit not given here
Details: for Volume; s (volume of the left ventricular, end of systole) / CO (Cardiac Output) / Diameter; d (inner diameter of the left ventricular, end of diastole) / Diameter; s (inner diameter of the left ventricular, end of systole) / EF (Ejection Fraction) / FS (Fractional Shortening) / LV Mass (AW) (weight of the left ventricular) / LVAW; d (left ventricular anterior wall thickness, end of diastole) / LVAW; s (left ventricular anterior wall thickness, end of systole) / LVPW; d (left ventricular posterior wall thickness, end of diastole) / LVPW; s (left ventricular posterior wall thickness, end of systole) / SV (Stroke Volume) / Volume; d (volume of the left ventricular, end of diastole): 75 mg/kg in drinking water
Description: The positive mice at 1.5 months old are distributed by weight and cardiac function uniformly into the model group and the ginsenoside Rb1 administration group according to the echocardiography result, and each group comprises twelve mice. Ginsenoside Rb1, 75 mg/kg (State Yao zhun Zi, Yun Nan Tean Na Pharmaceutical Co., Ltd) is put into animal drinking water, and continuously administered for seven months.
Echocardiography detection is performed once a month. Mice were anesthetized with tribromoethanol, scanned by small animal ultrasonic apparatus (Vevo 770 small animal ultrasonic detection system, Canada), with 30 MHz probe, M-mode echocardiography were analyzed: Body weight (BW), LVPW, d (the thickness of the left ventricular posterior wall at the end of the diastole), LVPW, s (the thickness of the left ventricular posterior wall at the end of the systole), LVAW, d (the thickness of the left ventricular anterior wall at the end of the diastole), LVAW, s (the thickness of the left ventricular anterior wall at the end of the systole), LV Mass (the weight of the left ventricular), Diameter, s (the inner diameter of the left ventricular at the end of the systole), Diameter, d (the inner diameter of the left ventricular at the end of the diastole), Volume, s (the volume of the left ventricular at the end of the systole), Volume, d (the volume of the left ventricular at the end of the diastole), SV (Stroke Volume), EF (Ejection Fraction), FS (Fractional Shortening) and CO (Cardiac Output).

[1] = long-term administration, echocardiography

For `CC(C)=CCC[C@](C)(O[C@@H]1O[C@H](CO[C@@H]2O[C@H](CO)[C@@H](O)[C@H](O)[C@H]2O)[C@@H](O)[C@H](O)[C@H]1O)[C@H]1CC[C@]2(C)[C@@H]1[C@H](O)C[C@@H]1[C@@]3(C)CC[C@H](O[C@@H]4O[C@H](CO)[C@@H](O)[C@H](O)[C@H]4O[C@@H]4O[C@H](CO)[C@@H](O)[C@H](O)[C@H]4O)C(C)(C)[C@@H]3CC[C@]12C` [Rb1, ginsenoside Rb1], the “Volume; s (volume of the left ventricular, end of systole)” value (“Volume; s” below) (3 month of administration) was 51.42 ± 15.53, the “CO (Cardiac Output)” value (4 month of administration) was 24.42 ± 1.52 and the “Diameter; d (inner diameter of the left ventricular, end of diastole)” value (shortened to “Diameter; d”) (4 month of administration) was 4.56 ± 0.26. The “Diameter; s (inner diameter of the left ventricular, end of systole)” value (from here on “Diameter; s”) (4 month of administration) was 3.38 ± 0.35, the “EF (Ejection Fraction)” value (4 month of administration) was 51.07 ± 6.01 and the “FS (Fractional Shortening)” value (4 month of administration) was 26.05 ± 3.64. For the same molecule, the “LV Mass (AW) (weight of the left ventricular)” value (“LV Mass (AW)” below) (4 month of administration) was 131.15 ± 12.93, the “LVAW; d (left ventricular anterior wall thickness, end of diastole)” value (“LVAW; d” below) (4 month of administration) was 0.81 ± 0.06 and the “LVAW; s (left ventricular anterior wall thickness, end of systole)” value (from here on “LVAW; s”) (4 month of administration) was 1.17 ± 0.11. For the same molecule, the “LVPW; d (left ventricular posterior wall thickness, end of diastole)” value (from here on “LVPW; d”) (4 month of administration) was 0.71 ± 0.06, the “LVPW; s (left ventricular posterior wall thickness, end of systole)” value (“LVPW; s” below) (4 month of administration) was 0.89 ± 0.12 and the “SV (Stroke Volume)” value (4 month of administration) was 48.37 ± 3.32. The “Volume; d (volume of the left ventricular, end of diastole)” value (from here on “Volume; d”) (4 month of administration) was 95.93 ± 13.01, the “Volume; s” value (4 month of administration) was 47.56 ± 11.76 and the “CO (Cardiac Output)” value (5 month of administration) was 23.18 ± 3.13. For the same molecule, the “Diameter; d” value (5 month of administration) was 4.93 ± 0.30, the “Diameter; s” value (5 month of administration) was 3.86 ± 0.32 and the “EF (Ejection Fraction)” value (5 month of administration) was 43.83 ± 3.93. For the same molecule, the “FS (Fractional Shortening)” value (5 month of administration) was 21.76 ± 2.21, the “LV Mass (AW)” value (5 month of administration) was 150.86 ± 25.12 and the “LVAW; d” value (5 month of administration) was 0.82 ± 0.12. The “LVAW; s” value (5 month of administration) was 1.13 ± 0.10, the “LVPW; d” value (5 month of administration) was 0.74 ± 0.06 and the “LVPW; s” value (5 month of administration) was 0.82 ± 0.08. The “SV (Stroke Volume)” value (5 month of administration) was 50.03 ± 5.63, the “Volume; d” value (5 month of administration) was 115.02 ± 16.33 and the “Volume; s” value (5 month of administration) was 64.99 ± 12.65. The “CO (Cardiac Output)” value (6 month of administration) was 25.99 ± 2.23, the “Diameter; d” value (6 month of administration) was 5.35 ± 0.19 and the “Diameter; s” value (6 month of administration) was 4.38 ± 0.19. For the same molecule, the “EF (Ejection Fraction)” value (6 month of administration) was 37.03 ± 3.07, the “FS (Fractional Shortening)” value (6 month of administration) was 18.01 ± 1.71 and the “LV Mass (AW)” value (6 month of administration) was 180.65 ± 5.80. The “LVAW; d” value (6 month of administration) was 0.74 ± 0.04, the “LVAW; s” value (6 month of administration) was 1.09 ± 0.09 and the “LVPW; d” value (6 month of administration) was 0.80 ± 0.01. For the same molecule, the “LVPW; s” value (6 month of administration) was 0.93 ± 0.06, the “SV (Stroke Volume)” value (6 month of administration) was 51.20 ± 5.31 and the “Volume; d” value (6 month of administration) was 138.41 ± 11.40. For the same molecule, the “Volume; s” value (6 month of administration) was 87.21 ± 8.99, the “CO (Cardiac Output)” value (7 month of administration) was 24.35 ± 4.80 and the “Diameter; d” value (7 month of administration) was 5.46 ± 0.34. For the same molecule, the “Diameter; s” value (7 month of administration) was 4.60 ± 0.44, the “EF (Ejection Fraction)” value (7 month of administration) was 33.02 ± 6.64 and the “FS (Fractional Shortening)” value (7 month of administration) was 15.92 ± 3.53. The “LV Mass (AW)” value (7 month of administration) was 190.72 ± 20.29, the “LVAW; d” value (7 month of administration) was 0.79 ± 0.12 and the “LVAW; s” value (7 month of administration) was 1.08 ± 0.17. For the same molecule, the “LVPW; d” value (7 month of administration) was 0.82 ± 0.13, the “LVPW; s” value (7 month of administration) was 0.87 ± 0.19 and the “SV (Stroke Volume)” value (7 month of administration) was 47.35 ± 6.92. The “Volume; d” value (7 month of administration) was 145.92 ± 21.42, the “Volume; s” value (7 month of administration) was 98.58 ± 22.36 and the cardiac function [1] was “improve the cardiac function”. The “dilation of cardiac chamber” value [1] was “significantly reduce”.
